Laboratory results reported in patent publication US5070210A, “Novel ketenimines as intermediates for insecticides” (ICI Americas Inc., priority 1990, dated 1991).

Experiments:
Format in all cases: in vivo
[1] = tested on: Housefly [Musca domestica]; experiment: Housefly insecticidal test; details: μg per 25 female flies; mortality after 48 hours
Procedure, shortened: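 Acetone solutions (with 0.01% peanut oil) dried onto dish bottoms, then 25 female flies, 1-2 days old, caged over the residue with sugar water. Mortality scored at 48 hours; LC50 from dosage-mortality curves, in μg per 25 female flies, top level 100 μg.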

[2] = tested on: Tobacco Budworm [Heliothis virescens (Fabricius)] eggs; experiment: Tobacco budworm egg test; details: 2-day old eggs, percent in solution
Procedure, shortened: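 2-day eggs on paper towel, acetone dip, 0.1% and below; petri dish with larval diet, 78° F. Mortality read after control hatch and larval feeding. LC50 = % compound in solution, from dose-mortality curve.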

[3] = tested on: Cabbage Looper [Trichoplusia ni (Hubner)]; experiment: Cabbage looper insecticidal test; details: second-instar larvae, percent in solution; 3-5 days
Procedure, shortened: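 LC50 values, given as percent test compound in solution, were calculated from dosage-mortality curves. Squash cotyledons were immersed 2-3 s in acetone-water (50-50) dilutions starting at 0.1%, dried on a screen, then infested with five second-instar larvae. Mortality was read 3-5 days on.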

[4] = tested on: Tobacco Budworm [Heliothis virescens (Fabricius)] larvae; experiment: Tobacco budworm contact test; details: second-instar larvae, percent in solution, 5 days
Method: The compounds in Tables 1 and 2 above were tested for insecticidal activity using the following testing procedures. LC50 values, based on the results of these tests and calculated according to dosage-mortality curves, are expressed in Table 3.
Tobacco Budworm [Heliothis virescens (Fabricius)]:
(a) Contact: Test compounds were diluted in a 50-50 acetone-water solution. Cotton (Gossypium sp.) cotyledons were immersed in the test solutions for 2-3 seconds and placed on a wire screen to dry. The dried leaves were placed in petri dishes containing a moistened piece of filter paper and infested with 5 second-instar tobacco budworm larvae. The dishes were placed in a high humidity chamber for 5 days, and percent mortality of the larvae recorded. Test concentrations ranged from 0.1% downward. The LC-50 values are expressed below in Table 3 under the heading "TBW-C" in terms of percent of the test compound in the solution.

[5] = tested on: Maize weevil [Sitophilus Zeamais (Motschulsky)]; experiment: Maize weevil insecticidal test; details: adult weevils, percent in solution; 48 hours
Procedure, shortened: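 LC50, in percent of compound in solution, was derived from dosage-mortality curves after 48 h at about 25 °C. Ten adult weevils per container fed on four corn seeds briefly immersed in acetone:water (50:50) solutions of up to 0.01% and dried.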

[6] = tested on: Aster Leafhopper [Macrosteles fascifrens (Stal)]; experiment: Aster leafhopper insecticidal test; details: adults/nymphs, percent in solution; 48 hours
Procedure, shortened: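 Three ~10 cm oat seedlings per cup were dipped 2-3 seconds in 50-50 acetone-water compound solutions, dried, and caged with ten adult/nymph leafhoppers. Mortality was counted after 48 hours at concentrations from 0.05% downward. LC50, as percent compound in solution, came from dosage-mortality curves.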

CCC(C)C(=Nc1ccc(F)c(Cl)c1)OCc1cccc(Oc2ccc(F)cc2)c1 (centres unmarked) [Compound 210]
LC50, HF [1]: 35 µg | LC50, TBW, E (TBW-E) [2]: 0.045% | LC50, CL [3]: 0.00028% | LC50, TBW, C (TBW-C) [4]: 0.0015% | LC50, MW [5]: > 0.01%

Cc1c(F)cccc1N=C(OCc1cccc(Oc2ccccc2)c1)C(C)C [Compound 73]
LC50, HF [1]: 25 µg | LC50, TBW, E (TBW-E) [2]: 0.025% | LC50, CL [3]: 0.004% | LC50, TBW, C (TBW-C) [4]: 0.005%

CC(C)C(=Nc1ccc(F)c(Cl)c1F)OCc1cccc(Oc2ccc(F)cc2)n1 [Compound 521]
LC50, HF [1]: 7.5 µg | LC50, LH [6]: 0.05% | LC50, TBW, E (TBW-E) [2]: > 0.1% | LC50, CL [3]: 0.00005% | LC50, TBW, C (TBW-C) [4]: 0.0005% | LC50, MW [5]: 0.01%

ClC(Cl)C(=Nc1ccccc1)OCc1cccc(Oc2ccccc2)c1 [Compound 41]
LC50, HF [1]: 4.5 µg | LC50, TBW, E (TBW-E) [2]: 0.04% | LC50, CL [3]: 0.015% | LC50, TBW, C (TBW-C) [4]: 0.0035%

COc1ccccc1N=C(OCc1cccc(Oc2ccccc2)c1)C(C)C [Compound 145]
LC50, HF [1]: > 100 µg | LC50, LH [6]: > 0.05% | LC50, TBW, E (TBW-E) [2]: > 0.1% | LC50, CL [3]: 0.05% | LC50, TBW, C (TBW-C) [4]: 0.05%

CC(C)(C)c1ccc(N=C(OCc2cccc(Oc3ccccc3)c2)C(Cl)Cl)cc1 [Compound 140]
LC50, HF [1]: > 100 µg | LC50, TBW, E (TBW-E) [2]: > 0.1% | LC50, CL [3]: < 0.1% | LC50, TBW, C (TBW-C) [4]: > 0.1%

Cc1ccc(N=C(OCc2cccc(Oc3ccccc3)c2)C(C)C)cc1F [Compound 75]
LC50, HF [1]: 5 µg | LC50, LH [6]: 0.0008% | LC50, TBW, E (TBW-E) [2]: 0.01% | LC50, CL [3]: 0.0025% | LC50, TBW, C (TBW-C) [4]: 0.0075%

Cc1ccc(F)cc1N=C(OCc1cccc(Oc2ccccc2)c1)C(C)C [Compound 74]
LC50, HF [1]: 25 µg | LC50, TBW, E (TBW-E) [2]: 0.025% | LC50, CL [3]: 0.005% | LC50, TBW, C (TBW-C) [4]: 0.0025%

COc1ccc(N=C(OCc2cccc(Oc3ccccc3)c2)C(C)C)c(OC)c1 [Compound 146]
LC50, HF [1]: 40 µg | LC50, TBW, E (TBW-E) [2]: > 0.1% | LC50, CL [3]: 0.017% | LC50, TBW, C (TBW-C) [4]: 0.025%

Fc1ccc(N=C(OCc2cccc(Oc3ccccc3)c2)C(Cl)Cl)cc1 [Compound 44]
LC50, HF [1]: 3 µg | LC50, TBW, E (TBW-E) [2]: 0.06% | LC50, TBW, C (TBW-C) [4]: < 0.1%

COc1ccc(N=C(OCc2cccc(Oc3ccccc3)c2)C(C)C)cc1Cl [Compound 95]
LC50, HF [1]: 10 µg | LC50, TBW, E (TBW-E) [2]: 0.025% | LC50, CL [3]: 0.0025% | LC50, TBW, C (TBW-C) [4]: 0.004%

CC(C)C(=Nc1c(F)c(F)c(F)c(F)c1F)OCc1cccc(Oc2ccccc2)c1 [Compound 51]
LC50, HF [1]: 25 µg | LC50, LH [6]: 0.001% | LC50, TBW, E (TBW-E) [2]: 0.067% | LC50, CL [3]: 0.001% | LC50, TBW, C (TBW-C) [4]: 0.0025%

CC(C)C(=Nc1cccc(C(F)(F)F)c1)OCc1ccc(F)c(Oc2ccc(Cl)cc2)c1 [Compound 266]
LC50, HF [1]: 10 µg | LC50, TBW, E (TBW-E) [2]: 0.06% | LC50, CL [3]: 0.00016% | LC50, TBW, C (TBW-C) [4]: 0.0007%

CC(C)C(=Nc1cc(F)cc(F)c1)OCc1cccc(Oc2ccc(F)cc2)c1 [Compound 199]
LC50, HF [1]: 8 µg | LC50, TBW, E (TBW-E) [2]: > 0.1% | LC50, CL [3]: 0.0006% | LC50, TBW, C (TBW-C) [4]: 0.003% | LC50, MW [5]: > 0.01%

Cc1cc(Cl)ccc1N=C(OCc1cccc(Oc2ccccc2)c1)C(C)C [Compound 96]
LC50, HF [1]: 35 µg | LC50, TBW, E (TBW-E) [2]: 0.025% | LC50, CL [3]: 0.003% | LC50, TBW, C (TBW-C) [4]: 0.0025%

C=C(C)C(=Nc1ccc(C(F)(F)F)cc1)OCc1ccc(F)c(Oc2ccc(Cl)cc2)c1 [Compound 432]
LC50, HF [1]: < 100 µg | LC50, TBW, E (TBW-E) [2]: 0.032% | LC50, CL [3]: 0.0012% | LC50, TBW, C (TBW-C) [4]: < 0.1% | LC50, MW [5]: > 0.01%

CC(=O)c1ccc(N=C(OCc2cccc(Oc3ccccc3)c2)C(C)C)cc1 [Compound 147]
LC50, HF [1]: 10 µg | LC50, TBW, E (TBW-E) [2]: > 0.1% | LC50, CL [3]: 0.01% | LC50, TBW, C (TBW-C) [4]: 0.0075%

CC(C)(C)C(=Nc1ccc(F)c(Cl)c1)OCc1cccc(Oc2ccc(F)cc2)c1 [Compound 204]
LC50, HF [1]: > 100 µg | LC50, TBW, E (TBW-E) [2]: > 0.1% | LC50, CL [3]: 0.0023% | LC50, TBW, C (TBW-C) [4]: 0.004% | LC50, MW [5]: > 0.01%

CC(C)C(=Nc1ccc2c(c1)OC(C)(C)O2)OCc1cccc(Oc2ccc(F)cc2)c1 [Compound 219]
LC50, HF [1]: 50 µg | LC50, TBW, E (TBW-E) [2]: 0.027% | LC50, CL [3]: 0.00025% | LC50, TBW, C (TBW-C) [4]: 0.004% | LC50, MW [5]: > 0.01%

CC(C)C(=Nc1ccc(F)c(Cl)c1)OCC#CCOc1ccccc1 [Compound 534]
LC50, HF [1]: > 100 µg | LC50, LH [6]: > 0.05% | LC50, TBW, E (TBW-E) [2]: > 0.1% | LC50, CL [3]: < 0.1% | LC50, MW [5]: > 0.01%

CC(C)C(=Nc1ccccc1Cl)OCc1cccc(Oc2ccccc2)c1 [Compound 17]
LC50, HF [1]: 75 µg | LC50, LH [6]: > 0.05% | LC50, TBW, E (TBW-E) [2]: > 0.1% | LC50, CL [3]: 0.03% | LC50, MW [5]: > 0.01%

CC(C)C(=Nc1ccc(Cl)c(C(F)(F)F)c1)OCc1cccc(Oc2ccc(F)cc2)c1 [Compound 193]
LC50, HF [1]: 100 µg | LC50, LH [6]: 0.001% | LC50, TBW, E (TBW-E) [2]: > 0.1% | LC50, CL [3]: 0.00075% | LC50, MW [5]: > 0.01%

CC(C)C(=Nc1ccc(F)c(Cl)c1)OCc1cccc(Oc2ccccc2F)c1 [Compound 119]
LC50, HF [1]: 27 µg | LC50, LH [6]: 0.0008% | LC50, TBW, E (TBW-E) [2]: 0.048% | LC50, CL [3]: 0.0007% | LC50, MW [5]: > 0.01%

CC(C)C(=Nc1cccc(C(C)(C)C)c1)OCc1cccc(Oc2ccc(F)cc2)c1 [Compound 350]
LC50, HF [1]: > 100 µg | LC50, LH [6]: > 0.05% | LC50, TBW, E (TBW-E) [2]: > 0.1% | LC50, CL [3]: 0.0045% | LC50, MW [5]: > 0.01%

Fc1ccc(N=C(OCc2cccc(Oc3ccccc3)c2)C(F)(F)C(F)(F)F)cc1Cl [Compound 117]
LC50, HF [1]: 55 µg | LC50, LH [6]: 0.0003% | LC50, TBW, E (TBW-E) [2]: > 0.1% | LC50, CL [3]: 0.006% | LC50, MW [5]: > 0.01%

CC(C)C(=Nc1ccc(F)c(Cl)c1)OCc1cccc(OCc2ccc(F)cc2)c1 [Compound 490]
LC50, HF [1]: > 100 µg | LC50, LH [6]: > 0.05% | LC50, TBW, E (TBW-E) [2]: > 0.1% | LC50, CL [3]: 0.0045% | LC50, MW [5]: > 0.01%

CCC(=Nc1ccc2c(c1)OCO2)OCc1cccc(Oc2ccccc2)c1 [Compound 178]
LC50, HF [1]: 6 µg | LC50, LH [6]: > 0.05% | LC50, TBW, E (TBW-E) [2]: > 0.1% | LC50, CL [3]: 0.004% | LC50, MW [5]: > 0.01%
